Columns and labels:
[1] = system: SH-SY5Y cells; assay: Cytotoxicity in SH-SY5Y cells (MTT); format: cell-based, human
Description: Human neuronal SH-SY5Y cells (Sigma-Aldrich, St. Louis, MO, USA) were routinely grown in Dulbecco’s modified Eagle’s Medium supplemented with 10% fetal bovine serum, 2 mM l-glutamine, 50 U/mL penicillin, and 50 μg/mL streptomycin at 37 °C in a humidified incubator with […]
Determination of cytotoxicity
SH-SY5Y cells were seeded in a 96-well plate at 2 × 10^4 cells/well, incubated for 24 h and then […]
for 24 h at 37°C in 5% CO2. The cell viability, in terms of mitochondrial metabolic function, was evaluated by the reduction of 3-(4,5-dimethyl-2-thiazolyl)-2,5-diphenyl-2H-tetrazolium bromide […]
(MTT) to its insoluble formazan. Briefly, the treatment was replaced with MTT in HBSS [0.5 mg/mL] for 2 h at 37°C in 5% CO2. After washing with HBSS, formazan crystals were dissolved in isopropanol. The amount of formazan was measured (570 nm, reference filter 690 nm) using a multilabel plate reader (VICTOR™ X3, PerkinElmer, Waltham, MA, USA). Data are expressed as mean of three independent experiments. […]

[2] = system: SH-SY5Y cells; assay: Neuroprotective effects against Aβ25-35 peptide in SH-SY5Y cells (MTT); format: cell-based, human; details: 0.5 and 1 μM for 2 h, then 3 h with Aβ25–35 10 μM
Description: Data are reported as mean ± SEM of three independent experiments. […]
measured (570 nm, reference filter 690 nm) using a multilabel plate reader (VICTOR™ X3, PerkinElmer, Waltham, MA, USA).[11] Data are reported as mean ± SEM of three independent experiments. The neurotoxicity was expressed as a percentage of control cells and calculated by the formula: 100 – ((absorbance of treated neurons/absorbance of untreated neurons) × 100). […]
analysis was performed using one-way ANOVA with the Dunnett post hoc test. Differences were considered significant at p < 0.05. Analyses were performed using GraphPad PRISM software (version 5.0; GraphPad Software, La Jolla, CA, USA) on a Windows platform.
(§1) 11. PAMPA BBB permeation studies.
(§2) Prediction of the brain penetration was evaluated using a parallel artificial membrane permeability assay (PAMPA).[12] Ten commercial drugs, PBS at pH 7.4, EtOH, and dodecane were purchased from Sigma- Aldrich, Acros organics, Merck, and Fluka. The porcine polar brain lipid (PBL) was from Avanti Polar Lipids. The donor plate was a 96-well filtrate plate (Multiscreen® IP Sterile Plate PDVF […]
(§3) both from Millipore. Filter PDVF membrane units (diameter 30 mm, pore size 0.45 µm) from Symta were used to filter the samples. A 96-well plate UV reader (Biteck Instruments, Synergy H4 Hibrid Reader) was used for the UV measurements.
12 mg of promazine) were dissolved in 1 mL of EtOH. […]

[3] = PAMPA-BBB permeation; format: in vitro ADME
Description: as §1, §2, §3
12 mg of promazine) were dissolved in 1 mL of EtOH. 100 µL of this compound stock solution were taken and 1400 µL of EtOH and 3500 µL of PBS were added to reach 30% of EtOH concentration in the experiment. These solutions were filtered. The acceptor 96-well microplate was filled with 180 µL of PBS/EtOH (70/30). The donor 96-well plate was coated with 4 µL of porcine brain lipid in dodecane (20 mg mL-1) and after 5 min, 180 µL of each compound solution was added. 1 mg of […]
of EtOH and 1.4 mL of PBS, filtered and then added to the donor 96-well plate. Then the donor plate was carefully put on the acceptor plate to form a “sandwich”, which was left undisturbed for 2 h and 45 min at 25 °C. During this time the compounds diffused from the donor plate through the brain lipid membrane into the acceptor plate. After incubation, the donor plate was removed. UV plate reader determined the concentration of compounds and commercial drugs in the acceptor and the donor plates. Every sample was analyzed at three to five wavelengths (between 200 and 500 nm), in 3 wells and in two independent runs. Results are given as the mean and the average of the two runs is reported. Quality control compounds (previously mentioned) of known BBB permeability were included in each experiment to validate the analysis set.

[4] = target: GSK-3β protein (Homo sapiens, UniProt P49841); assay: GSK-3β degradation by Western blotting in SH-SY5Y cells; format: cell-based; parameters: endogenous in cells; host or cells: SH-SY5Y
GSK-3β protein, sequence (P49841 whole entry): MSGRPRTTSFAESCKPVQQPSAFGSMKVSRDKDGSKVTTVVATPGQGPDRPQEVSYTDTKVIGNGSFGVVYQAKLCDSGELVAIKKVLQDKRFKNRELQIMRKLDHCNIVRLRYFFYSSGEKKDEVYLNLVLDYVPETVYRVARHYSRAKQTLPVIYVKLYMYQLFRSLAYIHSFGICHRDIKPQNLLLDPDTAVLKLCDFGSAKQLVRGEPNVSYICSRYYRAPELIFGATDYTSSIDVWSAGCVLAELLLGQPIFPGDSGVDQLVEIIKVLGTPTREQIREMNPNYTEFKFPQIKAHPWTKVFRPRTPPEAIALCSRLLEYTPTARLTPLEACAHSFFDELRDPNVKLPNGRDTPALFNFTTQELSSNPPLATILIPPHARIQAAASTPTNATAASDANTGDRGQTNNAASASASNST
Description: Determination of GSK-3β degradation by Western Blotting
At the end of incubation, cells were trypsinized and the cellular pellet was resuspended in complete lysis buffer containing leupeptin (2 µg/mL, Sigma-Aldrich), phenylmethylsulfonyl fluoride (PMSF, 100 µg/mL, Sigma-Aldrich) and a cocktail of protease/phosphatase inhibitors (100×). The protein concentration was determined using the Bradford method (Bio-Rad Laboratories Srl, Hercules, CA, USA). The protein lysates (50 µg per […]
polyacrylamide gels, Bio-Rad Laboratories SrL) and electroblotted onto 0.45 µm nitrocellulose membranes. Membranes were incubated overnight at 4 °C with primary antibody recognizing GSK-3β (1:1000, Cell Signaling Technologies Inc, Danvers, MA, USA). Membranes were then washed with TRIS-buffered saline-T (TBS + 0.05% Tween20), and then incubated with horseradish peroxidase (POD) linked anti-rabbit secondary antibody (1:2000, GE Healthcare, Chicago, IL, USA).
Immunoreactive bands were visualized by enhanced chemiluminescence (ECL, Bio-Rad Laboratories Srl). The same membranes were stripped and reprobed with anti β-actin (1:1000, Sigma-Aldrich). Data were normalized on the β-actin bands and analyzed by densitometry, using the Quantity One software (Bio-Rad Laboratories Srl).[9] […]

[5] = classified from experimental Pe

Papp at 2.75 h ([3]; PAMPA, pH 7.4, PBS:EtOH (70:30), 2 h 45 min at 25 °C, porcine brain lipid, mean ± SD of two independent experiments, read-out: Pe (experimental data)): 15.3 ± 1.12 ×10⁻⁶ cm/s
BBB permeability classification [3, 5]: CNS±
DC50 ([4]; 48 h, 0.5, 1, 5 and 10 μM, read-out: half-maximal degradation (DC50)): 6.22 µM
concentration from which GSK-3β is degraded ([4]; dose-dependent): ≥ 0.5 µM
SMILES: O=C(Cn1cc(C2=C(c3ccc(Cl)cc3Cl)C(=O)NC2=O)c2ccccc21)NCCCOCCCCOCCCNc1cccc2c1C(=O)N(C1CCC(=O)NC1=O)C2=O (centres unmarked) [Compound 1]
concentration at which cytotoxicity was shown ([1]; MTT, 24 h treatment, 1.25–40 μM): higher than 20 μM
nontoxic up to (neuronal cells) ([1]; neuronal cells): up to 20 μM
neurotoxicity induced by Aβ25–35 peptide [2]: markedly reduced the neurotoxicity induced by Aβ25–35 peptide
Prediction (penetration in the CNS) [3, 5]: CNS +/- (CNS +/- (orange) for 15.78 × 10 −6 cm s−1 > Pe > 11.11 × 10 –6 cm s−1)
total GSK-3β protein level ([4]; 10 μM, 48 h, Western blotting): significantly decreased the total level of GSK-3β protein
GSK-3β protein level, dose dependence ([4]; 48 h at 0.5, 1, 5 and 10 μM): significantly decreased GSK-3β protein level at all tested concentrations in a dose-dependent manner
total GSK-3β protein level in the presence of lactacystin ([4]; compound 10 μM, 24 h, lactacystin 5 μM): had no effect on the total GSK-3β protein level
